Experimental data published in patent publication US20120095036A1, “NOVEL SUBSTITUTED INDAZOLE AND AZA-INDAZOLE DERIVATIVES AS GAMMA SECRETASE MODULATORS” (priority 2009, published 2012).

Assays:
[1] = tested on: Aβtotal; assay: Method 1: Aβtotal sandwich ELISA on media of SKNBE2 cells carrying APP 695 wild type; type: cell-based; details: Homo sapiens, SKNBE2 cells APP 695 wild type, 18 hours
Protocol: (§1) Screening was carried out using SKNBE2 cells carrying the APP 695—wild type, grown in Dulbecco's Modified Eagle's Medium/Nutrient mixture F-12 (DMEM/NUT-mix F-12) (HAM) provided by Gibco (cat no. 31330-38) containing 5% Serum/Fe supplemented with 1% non-essential amino acids. Cells were grown to near confluency.
(§2) The screening was performed using the assay as described in Citron et al (1997) Nature Medicine 3: 67. Briefly, cells were plated in a 96-well plate at about 10^5 cells/ml one day prior to addition of compounds. Compounds were added to the cells in Ultraculture (Lonza, BE12-725F) supplemented with 1% glutamine (Invitrogen, 25030-024) for 18 hours. The media were assayed by two sandwich ELISAs, for Aβ42 and Aβtotal. Toxicity of the compounds was assayed by WST-1 cell proliferation reagent (Roche, 1 644 807) according to the manufacturer's protocol.
To quantify the amount of Aβtotal in the cell supernatant, samples and standards were added to a 6E10-coated plate. The plate was allowed to incubate overnight at 4° C. in order to allow formation of the antibody-amyloid complex. Following this incubation and subsequent wash steps a selective anti-AB-antibody conjugate (biotinylated 4G8) was added and incubated for a minimum of 1 hour in order to allow formation of the antibody-Amyloid-antibody-complex. After incubation and appropriate wash steps, a Streptavidine-Peroxidase-Conjugate was added, followed 30 minutes later by an addition of Quanta Blu fluorogenic peroxidase substrate according to the manufacturer's instructions (Pierce Corp., Rockford, Il).
(§3) To obtain the values reported in Table 3a, the sigmoidal dose response curves were analysed by computerised curve-fitting, with percent of inhibition plotted against compound concentration. A 4-parameter equation (model 205) in XLfit was used to determine the IC50. The top and the bottom of the curve were fixed to 100 and 0, respectively, and the hill slope was fixed to 1. The IC50 represents the concentration of a compound that is required for inhibiting a biological effect by 50% (Here, it is the concentration where Aβ peptide level is reduced by 50%).

[2] = tested on: Aβ42; assay: Method 1: Aβ42 sandwich ELISA on media of SKNBE2 cells carrying APP 695 wild type (γ-secretase-modulating activity); type: cell-based; details: Homo sapiens, SKNBE2 cells APP 695 wild type, 18 hours
Protocol: as §1, §2
To quantify the amount of Aβ42 in the cell supernatant, commercially available Enzyme-Linked-Immunosorbent-Assay (ELISA) kits were used (Innotest® β-Amyloid(1-42), Innogenetics N.V., Ghent, Belgium). The Aβ42 ELISA was performed essentially according to the manufacturer's protocol. Briefly, the standards (dilutions of synthetic A131-42) were prepared in polypropylene Eppendorf with final concentrations of 8000 down to […] (½ dilution step). Samples, standards and blanks (100 μl) were added to the anti-Aβ42-coated plate supplied with the kit (the capture antibody selectively recognizes the C-terminal end of the antigen). The plate was allowed to incubate 3 h at 25° C. in order to allow formation of the antibody-amyloid complex. Following this incubation and subsequent wash steps a selective anti-A13-antibody conjugate (biotinylated 3D6) was added and incubated for a minimum of 1 hour in order to allow formation of the antibody-Amyloid-antibody-complex. After incubation and appropriate wash steps, a Streptavidine-Peroxidase-Conjugate was added, followed 30 minutes later by an addition of 3,3′,5,5′-tetramethylbenzidine (TMB)/peroxide mixture, resulting in the conversion of the substrate into a coloured product. This reaction was stopped by the addition of sulfuric acid (0.9 N) and the colour intensity was measured by means of photometry with an ELISA-reader with a 450 nm filter.
as §3

[3] = tested on: Aβtotal; assay: Method 2: Aβtotal Alphalisa on supernatant of SKNBE2 cells carrying APP 695 wild type; type: cell-based; details: Homo sapiens, SKNBE2 cells APP 695 wild type, overnight
Protocol: as §1, with “Invitrogen” for “Gibco”, “10371-029)” for “31330-38)”, “acids, 1-glutamine 2 mM, Hepes 15 mM, penicillin 50 U/ml (units/ml) en streptomycin 50 μg/ml.” for “acids.”
(§4) The screening was performed using a modification of the assay as described in Citron et al (1997) Nature Medicine 3: 67. Briefly, cells were plated in a 384-well plate at 10^4 cells/well in Ultraculture (Lonza, BE12-725F) supplemented with 1% glutamine (Invitrogen, 25030-024), 1% non-essential amino acid (NEAA), penicillin 50 U/ml en streptomycin 50 μg/ml in the presence of test compound at different test concentrations. The cell/compound mixture was incubated overnight at 37° C., 5% CO2, The next day the media were assayed by two sandwich immuno-assays, for Aβ42 and Aβtotal.
(§5) Aβtotal and Aβ42 concentrations were quantified in the cell supernatant using the Aphalisa technology (Perkin Elmer). Alphalisa is a sandwich assay using biotinylated antibody attached to streptavidin coated donorbeads and antibody conjugated to acceptor beads. In the presence of antigen, the beads come into close proximity. The excitation of the donor beads provokes the release of singlet oxygen molecules that trigger a cascade of energy transfer in the acceptor beads, resulting in light emission. To quantify the amount of Aβ42 in the cell supernatant, monoclonal antibody specific to the C-terminus of Aβ42 (JRF/cAβ42/26) was coupled to the receptor beads and biotinylated antibody specific to the N-terminus of AB (JRF/AβN/25) was used to react with the donor beads. To quantify the amount of Aβtotal in the cell supernatant, monoclonal antibody specific to the N-terminus of AB (JRF/AβN/25) was coupled to the receptor beads and biotinylated antibody specific to the mid region of Aβ (biotinylated 4G8) was used to react with the donor beads.
(§6) To obtain the values reported in Table 3b, the data were calculated as percentage of the maximum amount of amyloid Beta 42 measured in the absence of the test compound. The sigmoidal dose response curves were analyzed using non-linear regression analysis with percentage of the control plotted against the log concentration of the compound. A 4-parameter equation was used to determine the IC50.

[4] = tested on: Aβ42; assay: Method 2: Aβ42 Alphalisa on supernatant of SKNBE2 cells carrying APP 695 wild type; type: cell-based; details: Homo sapiens, SKNBE2 cells APP 695 wild type, overnight
Protocol: as §1, with “Invitrogen” for “Gibco”, “10371-029)” for “31330-38)”, “acids, 1-glutamine 2 mM, Hepes 15 mM, penicillin 50 U/ml (units/ml) en streptomycin 50 μg/ml.” for “acids.”
as §4, §5, §6

Structure (SMILES) | IC50 [1] | melting point | IC50 [2] | IC50 [3] | IC50 [4]
COc1cccc(-n2nc3c(Nc4ccc(-c5cnn(C)c5)c(F)c4)cccc3c2C)c1 [Compound 7, N-[3-fluoro-4-(1-methyl-1H-pyrazol-4-yl)phenyl]-2-(3-methoxyphenyl)-3-methyl-2H-indazol-7-amine] | > 3000 nM | 239.1 °C | 229 nM | > 10000 nM | 55 nM
Cc1ncc(-c2ccc(Nc3cccc4c(CN)n(-c5ccc(F)cc5)nc34)cc2)o1 [Compound 8, 2-(4-fluorophenyl)-7-[[4-(2-methyl-5-oxazolyl)phenyl]amino]-2H-indazole-3-methanamine] | > 10000 nM | 137 °C | 180 nM | > 10000 nM | 177 nM
Cc1ncn(-c2ccc(Nc3cccc4c(C)n(CCCC(F)(F)F)nc34)cc2F)n1 [Compound 22, N-[3-fluoro-4-(3-methyl-1H-1,2,4-triazol-1-yl)phenyl]-3-methyl-2-(4,4,4-trifluorobutyl)-2H-indazol-7-amine] | > 3000 nM | 135.6 °C | > 3000 nM | > 3000 nM | > 3000 nM
Cc1ncn(-c2ccc(Nc3cccc4c(C)n(-c5ccc(F)cc5F)nc34)cc2F)n1 [Compound 23, 2-(2,4-difluorophenyl)-N-[3-fluoro-4-(3-methyl-1H-1,2,4-triazol-1-yl)phenyl]-3-methyl-2H-indazol-7-amine] | – | 146.9 °C | 1040 nM | > 10000 nM | 724 nM
Cc1ncc(-c2ccc(Nc3cccc4c(C#N)n(-c5ccc(F)cc5)nc34)cc2)o1 [Compound 32, 2-(4-fluorophenyl)-7-[[4-(2-methyl-5-oxazolyl)phenyl]amino]-2H-indazole-3-carbonitrile] | > 3000 nM | 237.9 °C | 2130 nM | > 3000 nM | > 3000 nM
Cc1ncc(-c2ccc(Nc3cccc4cn(-c5ccc6c(c5)OCO6)nc34)cc2)o1 [Compound 34, 2-(1,3-benzodioxol-5-yl)-N-[4-(2-methyl-5-oxazolyl)phenyl]-2H-indazol-7-amine] | – | 175 °C | 359 nM | > 10000 nM | 479 nM
COc1cccc(-n2nc3c(Nc4ccc(-c5cnc(C)o5)cc4)nccc3c2C)c1 [Compound 35, 2-(3-methoxyphenyl)-3-methyl-N-[4-(2-methyl-5-oxazolyl)phenyl]-2H-pyrazolo[3,4-c]pyridin-7-amine] | > 3000 nM | 185 °C | 382 nM | > 10000 nM | 166 nM
COc1cc(Nc2cccc3c(C)n(-c4ccc(F)cc4)nc23)ccc1-c1cnc(C)o1 [Compound 40, 2-(4-fluorophenyl)-N-[3-methoxy-4-(2-methyl-5-oxazolyl)phenyl]-3-methyl-2H-indazol-7-amine] | > 3000 nM | 164.4 °C | 186 nM | 5500 nM | 32 nM
Cc1ncc(-c2ccc(Nc3cccc4cn(CC(F)(F)F)nc34)cn2)o1 [Compound 44, N-[6-(2-methyl-5-oxazolyl)-3-pyridinyl]-2-(2,2,2-trifluoroethyl)-2H-indazol-7-amine] | > 3000 nM | 153.4 °C | 513 nM | > 10000 nM | 363 nM
COc1nc(Nc2cc(C(C)C)nc3cn(CC(F)(F)F)nc23)ccc1-n1cnc(C)c1 [Compound 57, N-[6-methoxy-5-(4-methyl-1H-imidazol-1-yl)-2-pyridinyl]-5-(1-methylethyl)-2-(2,2,2-trifluoroethyl)-2H-pyrazolo[4,3-b]pyridin-7-amine] | – | 172.5 °C | – | 1660 nM | 107 nM
